Here are results for 16 compounds from US20220274979A1 (Bayer Pharma Aktiengesellschaft, priority 2018, published 2022).

In assay [1] the target is T1, hK-RasG12C - hSOS1 interaction (Homo sapiens, UniProt Q07889).
T1 construct: hSOS1 (amino acid 564-1049); made in house; host or cells: E. coli BL21 (DE3)
T1 sequence (Q07889 with tags, fused parts or gaps): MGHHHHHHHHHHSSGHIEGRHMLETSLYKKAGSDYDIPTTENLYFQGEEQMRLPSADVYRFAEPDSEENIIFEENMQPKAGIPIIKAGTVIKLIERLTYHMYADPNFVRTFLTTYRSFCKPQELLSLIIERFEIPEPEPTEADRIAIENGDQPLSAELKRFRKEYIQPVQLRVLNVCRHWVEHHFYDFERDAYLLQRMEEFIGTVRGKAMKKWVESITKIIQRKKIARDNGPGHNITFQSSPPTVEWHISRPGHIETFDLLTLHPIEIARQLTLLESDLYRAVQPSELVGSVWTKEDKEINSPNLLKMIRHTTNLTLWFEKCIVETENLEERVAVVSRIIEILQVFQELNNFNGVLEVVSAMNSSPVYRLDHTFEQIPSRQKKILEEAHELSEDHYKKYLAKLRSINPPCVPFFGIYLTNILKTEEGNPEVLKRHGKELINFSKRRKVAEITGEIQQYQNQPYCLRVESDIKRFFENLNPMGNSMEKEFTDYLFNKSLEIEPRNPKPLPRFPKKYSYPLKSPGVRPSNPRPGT
In words: Biochemical Assay 1: hK-RasG12C interaction assay with hSOS1 (HTRF). The format is binding. Particulars: values expressed as IC50. The method, boiled down: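 HTRF signal between GST-hK-RasG12C (10 nM working solution, anti-GST-Eu) and His-hSOS1 (20 nM working solution, anti-6His-XL665) was read in HEPES pH 7.4 buffer with 10 mM EDTA, 1 mM DTT and 100 mM KF at 20 °C.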
Background: In TR-FRET formats the signal depends on donor and acceptor labels being close together.

Assay [2] deals with T2, hSOS1 (hSOS1-mediated loading of hK-RasG12C-GDP) (Homo sapiens, UniProt Q07889).
T2 construct: hSOS1 (amino acid 564-1049); made in house; host or cells: E. coli BL21 (DE3)
T2 sequence (Q07889 with tags, fused parts or gaps): T1 sequence (Q07889 with tags, fused parts or gaps)
In words: Biochemical Assay 3: hK-RasG12C activation assay by hSOS1 (loading with fluorescent GTP analog, HTRF). The following applies: no GTP.

By IC50 is commonly meant the point on the concentration scale where inhibition reaches its midpoint. In the case of `Cc1nc(N[C@H](C)c2cccc(Br)c2)c2cc(OCC3CC3)ncc2n1` [Example 75, N-[(1R)-1-(3-bromophenyl)ethyl]-6-(cyclopropylmethoxy)-2-methylpyrido[3,4-d]pyrimidin-4-amine], the half-maximal inhibitory concentration (IC50) in assay [1] stood at 4180 nM; in assay [2], 15200 nM.

For `Cc1nc(NC(C)c2ccc(-c3ccccc3CN(C)C)s2)c2cc(OCCCO)ncc2n1` (centres unmarked) [Example 76, 3-[(4-{[1-(5-{2-[(dimethylamino)methyl]phenyl}thiophen-2-yl)ethyl]amino}-2-methylpyrido[3,4-d]pyrimidin-6-yl)oxy]propan-1-ol], the 50% inhibitory concentration (IC50) in assay [1] was found to be 45.2 nM; in assay [2] it was 73 nM.

Take `Cc1nc(NC(C)c2ccc(-c3ccccc3CN(C)C)s2)c2cc(OC3CCS(=N)(=O)CC3)ncc2n1` (centres unmarked) [Example 77, N-[1-(5-{2-[(dimethylamino)methyl]phenyl}-2-thienyl)ethyl]-6-[(1-imino-1-oxidohexahydro-1lambda4-thiopyran-4-yl)oxy]-2-methylpyrido[3,4-d]pyrimidin-4-amine]: the half-maximal inhibitory concentration (IC50) in assay [1] was 49.8 nM; in assay [2], 84.3 nM.

As to `Cc1nc(N[C@H](C)c2cccc(Br)c2)c2cc(OCCN(C)C)ncc2n1` [Example 78, N-[(1R)-1-(3-bromophenyl)ethyl]-6-[2-(dimethylamino)ethoxy]-2-methylpyrido[3,4-d]pyrimidin-4-amine], the 50% inhibitory concentration (IC50) in assay [1] was 1280 nM; in assay [2], 2270 nM.

`Cc1nc(N[C@H](C)c2cccc(Br)c2)c2cc(NCCS(C)(=O)=O)ncc2n1` [Example 83]: the IC50 in assay [1] amounted to 575 nM; in assay [2], 1090 nM.

Consider `Cc1nc(N[C@H](C)c2cccc(Br)c2)c2cc(NCCn3ccnc3)ncc2n1` [Example 84, N4-[(1R)-1-(3-bromophenyl)ethyl]-N6-[2-(1H-imidazol-1-yl)ethyl]-2-methylpyrido[3,4-d]pyrimidine-4,6-diamine], for which the half-maximal inhibitory concentration (IC50) in assay [1] was 513 nM; in assay [2], 1210 nM.

Turning to `Cc1nc(NC(C)c2ccc(-c3ccccc3CN(C)C)s2)c2cc(NCC3CCNC(=O)C3)ncc2n1` (centres unmarked) [Example 86, 4-{[(4-{[1-(5-{2-[(dimethylamino)methyl]phenyl}thiophen-2-yl)ethyl]amino}-2-methylpyrido[3,4-d]pyrimidin-6-yl)amino]methyl}piperidin-2-one], the half-inhibitory concentration (IC50) in assay [1] was 119 nM; in assay [2], 144 nM.

With `Cc1nc(NC(C)c2ccc(-c3ccccc3CN(C)C)s2)c2cc(N3CC(NC(=O)CCCn4c(-c5ccccn5)nc(C)c4C)C3)ncc2n1` (centres unmarked) [Example 87, N-[1-(4-{[1-(5-{2-[(dimethylamino)methyl]phenyl}thiophen-2-yl)ethyl]amino}-2-methylpyrido[3,4-d]pyrimidin-6-yl)azetidin-3-yl]-4-[4,5-dimethyl-2-(pyridin-2-yl)-1H-imidazol-1-yl]butanamide], the IC50 in assay [1] turned out to be 71 nM; in assay [2], 228 nM.

`Cc1nc(NC(C)c2ccc(-c3ccccc3CN(C)C)s2)c2cc(N3CC(NC(=O)c4ccccc4)C3)ncc2n1` (centres unmarked) [Example 88, N-[1-(4-{[1-(5-{2-[(dimethylamino)methyl]phenyl}thiophen-2-yl)ethyl]amino}-2-methylpyrido[3,4-d]pyrimidin-6-yl)azetidin-3-yl]benzamide]: the IC50 is 59.5 nM in assay [1] and 173 nM in assay [2].

Take `Cc1nc(NC(C)c2ccc(-c3ccccc3CN(C)C)s2)c2cc(N3CC(NC(=O)Cc4ccccc4)C3)ncc2n1` (centres unmarked) [Example 89, N-[1-(4-{[1-(5-{2-[(dimethylamino)methyl]phenyl}thiophen-2-yl)ethyl]amino}-2-methylpyrido[3,4-d]pyrimidin-6-yl)azetidin-3-yl]-2-phenylacetamide]: the IC50 in assay [1] was determined as 44.4 nM; in assay [2], 132 nM.

In the case of `Cc1nc(NC(C)c2ccc(-c3ccccc3CN(C)C)s2)c2cc(N3CC(NC(=O)C4CCCCC4)C3)ncc2n1` (centres unmarked) [Example 90, N-[1-(4-{[1-(5-{2-[(dimethylamino)methyl]phenyl}thiophen-2-yl)ethyl]amino}-2-methylpyrido[3,4-d]pyrimidin-6-yl)azetidin-3-yl]cyclohexanecarboxamide], the IC50 in assay [1] came to 63 nM; in assay [2] it was 190 nM.

As to `Cc1nc(NC(C)c2ccc(-c3ccccc3CN(C)C)s2)c2cc(N3CC(NC(=O)CC4CC4)C3)ncc2n1` (centres unmarked) [Example 91, 2-cyclopropyl-N-[1-(4-{[1-(5-{2-[(dimethylamino)methyl]phenyl}thiophen-2-yl)ethyl]amino}-2-methylpyrido[3,4-d]pyrimidin-6-yl)azetidin-3-yl]acetamide], the half-inhibitory concentration (IC50) in assay [1] amounted to 55.1 nM; in assay [2], 179 nM.

In the case of `Cc1nc(NC(C)c2ccc(-c3ccccc3CN(C)C)s2)c2cc(N3CC(N)C3)ncc2n1` (centres unmarked) [Example 93, 6-(3-aminoazetidin-1-yl)-N-[1-(5-{2-[(dimethylamino)methyl]phenyl}thiophen-2-yl)ethyl]-2-methylpyrido[3,4-d]pyrimidin-4-amine], the concentration for half-maximal inhibition (IC50) in assay [1] was found to be 33.5 nM; in assay [2], 82.9 nM.

Take `Cc1nc(NC(C)c2ccc(-c3ccccc3CN(C)C)s2)c2cc(N3CC(NS(=O)(=O)c4ccccc4)C3)ncc2n1` (centres unmarked) [Example 94, N-[1-(4-{[1-(5-{2-[(dimethylamino)methyl]phenyl}thiophen-2-yl)ethyl]amino}-2-methylpyrido[3,4-d]pyrimidin-6-yl)azetidin-3-yl]benzenesulfonamide]: the IC50 in assay [1] amounted to 57.2 nM; in assay [2], 170 nM.

On to `Cc1nc(NC(C)c2ccc(-c3ccccc3CN(C)C)s2)c2cc(N3CC(NS(=O)(=O)Cc4ccccc4)C3)ncc2n1` (centres unmarked) [Example 95, N-[1-(4-{[1-(5-{2-[(dimethylamino)methyl]phenyl}thiophen-2-yl)ethyl]amino}-2-methylpyrido[3,4-d]pyrimidin-6-yl)azetidin-3-yl]-1-phenylmethanesulfonamide], for which the half-maximal inhibitory concentration (IC50) was found to be 107 nM in assay [1] and 204 nM in assay [2].

Take `Cc1nc(NC(C)c2ccc(-c3ccccc3CN(C)C)s2)c2cc(N3CC(NC(=O)Nc4ccccc4)C3)ncc2n1` (centres unmarked) [Example 96, 1-[1-(4-{[1-(5-{2-[(dimethylamino)methyl]phenyl}thiophen-2-yl)ethyl]amino}-2-methylpyrido[3,4-d]pyrimidin-6-yl)azetidin-3-yl]-3-phenylurea]: the IC50 in assay [1] was 76.6 nM; in assay [2] it was 206 nM.
